SMILES strings stand for the structures. Like-named read-outs stand apart in the source and are kept apart here.

One may read the IC50 as the concentration needed to halve the response being measured.

The target in assay [1] is T1, FLK-1 receptor (Mus musculus, UniProt P35918).
T1 construct: expressed in transfected cells; host or cells: NIH3T3C7#3 cells (FLK-1 infected NIH3T3)
Briefly: ELISA assay to measure kinase activity of FLK-1 receptor in FLK-1/NIH cells. Type of assay: cell-based, murine. On the procedure: ELISA Assay To Measure Kinase Activity Of FLK-1 Receptor In FLK-1/NIH Cells
An ELISA assay was conducted to measure the kinase activity of the FLK-1 receptor and more specifically, the inhibition or activiation of protein tyrosine kinase activity on the FLK-1 receptor.
k. NIH3T3C7#3 Cells (FLK-1 infected cells);
Protocol. The following protocol was used to conduct the ELISA Assay:
1. Coat Corning 96-well elisa plates with 1.0 ug per well Cappel Anti-rabbit IgG antibody in 0.1M Na2CO3 pH 9.6. Bring final volume to 150 ul per well. Coat plates overnight at 4° C. Plates can be kept up to two weeks when stored at 4° C.
2. Grow cells in 30 ml of Growth media 9DMEM. 2.0 mM L-Glutamine, 10% FBS) until confluent in 150 cm tissue culture dishes at 37° C., 5% CO2.
3. Harvest cells by tyrpsination and seed in Corning 25850 polystyrene 96-well roundbottom cell plates, 25.000 cells/well in 200 uL of growth media.
4. Grow cells at least one day at 37° C., 5% CO2.
5. Wash cells with D-PBS 1X.
6. Add 200 ul/well of starvation media (DMEM, 2.0 mM l-Glutamine, 0.1% FBS). Incubate overnight at 37° C., 5% CO2.
7. Dilute Compounds/Extracts 1:20 in polyproplyene 96 well plates using starvation media. Dilute dimethylsulfoxide 1:20 for use in control wells.
8. Remove starvation media from 96 well cell culture plates and add 162 ul of fresh starvation media to each well.
9. Add 18 ul of 1:20 diluted Compound/Extract dilution (from step #7) to each well plus the 1:20 dimethylsulfoxide dilution to the control wells (+/-VEGF), for a final dilution of 1:200 after cell stimulation. Final dimethylsulfoxide is 0.5%. Incubate the plate at 37° C., 5% CO2 for two hours.
10. Remove unbound antibody from Elisa plates by inverting plate to remove liquid. Wash 3 times with TBSW+0.5% Ethanolamine, pH 7.0. Pat the plate on a paper towel to remove excess liquid and bubbles.
11. Block plates with TBSW+0.5% Ethanolamine, pH 7.0. 150 ul per well. Incubate plate thirty minutes while shaking on a microtiter plate shaker.
12. Wash plate 3 times as described in step 10.
13. Add 0.5 ug/well affinity purified anti-flk-1 polyclonal rabbit antiserum. Bring final volume to 150 ul/well with TBSW+0.5k Ethanolamine pH 7.0. Incubate plate for thirty minutes while shaking.
14. Add 180 μl starvation medium to the cells and stimulate cells with 20 ul/well 10.0 mM Sodium Ortho Vanadate and 500 ng/ml VEGF (resulting in a final concentration of 1.0 mM Sodium Ortho Vanadate and 50 ng/ml VEGF per well) for eight minutes at 37° C., 5% CO2. Negative control wells receive only starvation medium.
15. After eight minutes, media are removed from the cells and washed one time with 200 ul/well PBS.
16. Lyse cells in 150 ul/well HNTG while shaking at room temperature for five minutes. HNTG formulation includes sodium ortho vanadate, sodium pyro phosphate and EDTA.
17. Wash Elisa plate three times as described in step 10.
18. Transfer cell lysates from the cell plate to elisa plate and incubate while shaking for two hours. To transfer cell lysate pipette up and down while scrapping the wells.
19. Wash plate three times as described in step 10.
20. Incubate Elisa plate with 0.02 ug/well UB40 in TBSW+05% ethanolamine. Bring final volume to 150 ul/well. Incubate while shaking for 30 minutes.
21. Wash plate three times as described in step 10.
22. Incubate elisa plate with 1:10,000 diluted EIA grade Goat anti-mouse IgG conjugated horseradish peroxidase in TBSW+0.5% ethanolamine, pH 7.0. Bring final volume to 150 ul/well. Incubate while shaking for thirty minutes.
23. Wash plate as described in step 10.
24. Add 100 ul of ABTS/H202 solution to well. Incubate ten minutes while shaking.
25. Add 100 ul of 0.2M HCL for 0.1M HCL final to stop the colordevelopment reaction. Shake 1 minute at room temperature. Remove bubbles with slow stream of air and read the ELISA plate in an ELISA plate reader at 410 nm.
Background: ELISA stands for enzyme-linked immunosorbent assay.

Assay [2] has as its system Calu-6. The assay is described as follows: Tumor xenograft growth inhibition, Calu-6 (lung). Type of assay: in vivo, human. An excerpt:
The ability of one of the compounds of the present invention, leflunomide (Compound 40), to inhibit ovarian, melanoma, prostate, lung and mammary tumor cell lines established as SC xenografts was examined. […]
The tumor cells were implanted subcutaneously into the indicated strains of mice. Treatment was initiated on day 1 post implantation unless otherwise indicated (e.g. treatment of the SCID mouse related to the A375 melanoma cell line began on Day 9). Eight (8) to ten (10) mice comprised each test group.
Animals. Female athymic mice (BALB/c, nu/nu), BALB/c mice, Wistar rats and Fisher 344 rats were obtained from Simonsen Laboratories (Gilroy, Calif.). Female A/I mice were obtained from Jackson Laboratory (Bar Harbor, Me.). DA rats were obtained from B&K Universal, Inc. (Fremont, Calif.). Athymic R/Nu rats, DBA/2N mice, and BALB/c mice were obtained from Harlan Sprague Dawley (Indianapolis, Ind.). Female C57BL/6 mice were obtained from Taconic (Germantown, N.Y.). All animals were maintained under clean-room conditions in Micro-isolator cages with Alpha-dri bedding. They received sterile rodent chow and water ad libitum.
Subcutaneous Xenograft Model. Cell lines were grown in appropriate medium as described (See Section 6). Cells were harvested at or near confluency with 0.05% Trypsin-EDTA and pelleted at 450×g for 10 min. Pellets were resuspended in sterile PBS or media (without FBS) to a suitable concentration indicated in the Figure legends and the cells were implanted into the hindflank of mice. Tumor growth was measured over 3 to 6 weeks using venier calipers tumor volumes were calculated as a product of length x width x height unless otherwise indicated. P values were calculated using the Students' t-test. su101 in 50-100 uL excipient (dimethylsulfoxide, PBTE, PBTE6C:D5W, or PBTE:D5W) was delivered by IP injection at concentrations indicated in the Figure legends.
Background: A xenograft is tissue or cells of one species grown in another, often human tumour cells in immunodeficient mice.

The mark [3] stands for this setting: FLK-1R ELISA, VEGF-stimulated FLK-1/NIH cells.

T1 sequence (P35918 20-1345): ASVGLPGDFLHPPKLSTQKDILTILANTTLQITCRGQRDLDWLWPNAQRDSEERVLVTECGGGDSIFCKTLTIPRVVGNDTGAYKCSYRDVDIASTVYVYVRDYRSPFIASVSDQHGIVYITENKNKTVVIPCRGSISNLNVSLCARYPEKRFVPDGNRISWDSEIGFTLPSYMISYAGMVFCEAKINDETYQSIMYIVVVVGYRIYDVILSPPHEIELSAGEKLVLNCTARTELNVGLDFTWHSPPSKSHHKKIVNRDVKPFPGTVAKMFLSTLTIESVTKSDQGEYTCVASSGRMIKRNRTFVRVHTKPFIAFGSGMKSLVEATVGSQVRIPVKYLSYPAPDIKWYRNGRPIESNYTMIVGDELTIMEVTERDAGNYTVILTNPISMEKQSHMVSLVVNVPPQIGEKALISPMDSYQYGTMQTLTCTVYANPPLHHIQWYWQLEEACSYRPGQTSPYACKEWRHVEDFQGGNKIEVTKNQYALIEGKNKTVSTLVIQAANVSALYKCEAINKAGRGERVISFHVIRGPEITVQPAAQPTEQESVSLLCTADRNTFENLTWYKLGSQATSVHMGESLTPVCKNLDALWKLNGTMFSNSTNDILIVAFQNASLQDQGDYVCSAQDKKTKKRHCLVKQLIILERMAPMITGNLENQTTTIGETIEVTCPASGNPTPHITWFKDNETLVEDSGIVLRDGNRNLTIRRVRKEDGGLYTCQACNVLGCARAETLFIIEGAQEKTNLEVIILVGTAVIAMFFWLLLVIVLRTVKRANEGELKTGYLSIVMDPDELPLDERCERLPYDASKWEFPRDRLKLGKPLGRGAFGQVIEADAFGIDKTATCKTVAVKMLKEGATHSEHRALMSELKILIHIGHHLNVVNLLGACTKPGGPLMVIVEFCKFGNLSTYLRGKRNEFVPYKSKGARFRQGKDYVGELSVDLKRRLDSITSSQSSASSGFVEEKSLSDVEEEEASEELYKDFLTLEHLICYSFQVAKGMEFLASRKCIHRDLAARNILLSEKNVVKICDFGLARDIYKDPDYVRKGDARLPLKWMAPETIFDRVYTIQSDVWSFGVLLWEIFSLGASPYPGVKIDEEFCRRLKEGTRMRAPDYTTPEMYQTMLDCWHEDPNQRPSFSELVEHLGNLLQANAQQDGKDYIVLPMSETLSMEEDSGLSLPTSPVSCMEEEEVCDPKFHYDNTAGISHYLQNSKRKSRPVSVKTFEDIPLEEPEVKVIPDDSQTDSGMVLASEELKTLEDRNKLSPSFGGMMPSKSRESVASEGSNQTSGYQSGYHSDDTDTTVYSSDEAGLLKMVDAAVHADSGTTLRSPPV

Consider `CC(C)(C)c1cc(/C=C(\C#N)C(N)=S)cc(C(C)(C)C)c1O` [Compound 1, (E)-2-aminothiocarbonyl-3 (3,5-di-t-butyl-4-hydroxyphenyl)acrylonitrile], for which the concentration for half-maximal inhibition (IC50) in assay [1] (FLK-1R ELISA, VEGF-stimulated FLK-1/NIH cells, read-out: IC50) stood at 0.8 µM.
In the case of `N#CC(C#N)=Cc1cc(O)c(O)c(I)c1` [Compound 2, (E)-2-cyano-3-(3-iodo-4,5-hydroxyphenyl)acrylonitrile], the “inhibition, CALU-6 (in words)” value in assay [2] (20 mg/kg/day) and in assay [2] (40 mg/kg/day) was “no detectable inhibition” throughout.
In turn, `N#C/C(=C\c1cc(O)c(O)c(I)c1)C(=O)NCCCc1ccccc1` [Compound 3] showed an IC50 in assay [1] (setting [3]) of 4.9 µM.
With `CC(C)(C)c1cc(/C=C(/C#N)c2[nH]nc(N)c2C#N)cc(C(C)(C)C)c1O` [Compound 4, (E)-2-[(3-amino-4-cyano)pyrazo-5-yl]-3-(3,5-di-t-butyl-4-hydroxyphenyl)acrylonitrile], the IC50 in assay [1] stood at 8.9 µM. Besides, the “inhibition, CALU-6 (in words)” value in assay [2] (20 mg/kg/day) was “no significant inhibition”.
With `N#C/C(=C\c1cc(O)c(O)c(I)c1)C(=O)NCc1ccccc1` [Compound 6, (E)-2-(benzylaminocarbonyl)-3-(3-iodo-4,5-dihydroxyphenyl)acrylonitrile], half-maximal inhibition in assay [1] (IC50) was put at 21.2 µM.
For `N#C/C(=C\c1ccc(O)c(O)c1)C(=O)NCCNC(=O)/C(C#N)=C/c1ccc(O)c(O)c1` [Compound 7], the IC50 in assay [1] (setting [3]) amounted to 37.5 µM.
Turning to `N#C/C(=C\c1ccc(O)c(O)c1)C(=O)NCCCCNC(=O)/C(C#N)=C/c1ccc(O)c(O)c1` [Compound 8, (E,E)-2-[[4-[[1-cyano-2-(3,4-dihydroxyphenyl)ethenyl]carbonylamino]-n-butyl]aminocarbonyl]-3-(3,4-dihydroxyphenyl)acrylonitrile], the 50% inhibitory concentration (IC50) in assay [1] was determined as 10.8 µM.
With `N#C/C(=C\c1ccc(O)c(O)c1)S(=O)(=O)/C(C#N)=C/c1ccc(O)c(O)c1` [Compound 9], the concentration for half-maximal inhibition (IC50) in assay [1] (setting [3]) is 27.4 µM.
As for `N#C/C(=C\c1ccc2[nH]ccc2c1)C(=O)c1ccc(O)c(O)c1` [Compound 10, (E)-3-(indol-5-yl)-2-(3,4-dihydroxyphenylcarbonyl)acrylonitrile], it took 17.7 µM to reach half-maximal inhibition in assay [1] (IC50).
For `CC(C)c1cc(/C=C(\C#N)C(=S)NCCCc2ccccc2)cc(C(C)C)c1O` [Compound 11, (E)-2-[3-phenyl-n-propylaminothiocarbonyl]-3-(3,5-diisopropyl-4-hydroxyphenyl)acrylonitrile], 9.8 µM corresponded to half-maximal inhibition in assay [1] (IC50).
`N#C/C(=C\c1cc(O)c(O)c(Br)c1)S(=O)(=O)/C(C#N)=C/c1cc(O)c(O)c(Br)c1` [Compound 12, (E)-2-[1-cyano-2-(5-bromo-3,4-dihydroxyphenyl)ethenylsulfonyl]-3-(3-bromo-4,5-dihydroxyphenyl)acrylonitrile] registered an IC50 in assay [1] of 7.1 µM. Further, the “inhibition, CALU-6 (in words)” value in assay [2] (20 mg/kg/day) is “no detectable inhibition”.
Compound `Cc1cc2ncc(Nc3ccc(I)cc3)nc2cc1C` [Compound 13, 2-[(4-iodophenyl)amino]-6,7-dimethyl quinoxaline] showed an IC50 in assay [1] of 10.4 µM.
`Cc1cc2ncc(-c3ccc(O)c(O)c3)nc2cc1C` [Compound 14, 2-(3,4-dihydroxyphenyl) -6,7-dimethylquinoxaline] had an IC50 in assay [1] of 9.3 µM.
For `Cc1ccc2ncnc(Nc3cccc(O)c3)c2c1` [Compound 16, 4-(3-hydroxyphenylamino)-6-methylquinazoline], the concentration for half-maximal inhibition (IC50) in assay [1] turned out to be 35.1 µM.
In assay [1], `Cc1cc2ncc(Nc3ccc(Cl)c(Cl)c3)nc2cc1C` [Compound 17, 2-(3,4-dichlorophenylamino)-6,7-dimethylquinoxaline] showed an IC50 of 15 µM.
Take `Oc1cccc(Nc2ncnc3ccccc23)c1` [Compound 18, 4-(3-hydroxyphenylamino)-quinazoline]: in assay [1], it took 34.6 µM to reach half-maximal inhibition (IC50).
`CCCNc1nc2ccccc2nc1Cl` [Compound 19, 2-(n-propylamino)-3-chloroquinoxaline]: in assay [1], the IC50 turned out to be 25.6 µM.
The same measure, in the same setting: in the case of `Cc1ccc(Sc2ncnc3ccc(C)cc23)cc1` [Compound 20] it was 17.8 µM; in that of `COc1cc2nc(Cl)nc(Nc3cccc(Cl)c3)c2cc1OC` [Compound 21, 2-chloro-4-(3-chlorophenylamino)-6,7-dimethoxyquinazoline], 9.9 µM; in that of `N#CC(C#N)=NNc1cccc(Cl)c1` [Compound 22], 2.3 µM.
Compound `c1ccc(-c2cnc3cc4ccccc4cc3n2)cc1` [Compound 23, 2-phenyl-1,4-diaza-anthracene] yielded an IC50 in assay [1] of 4.4 µM. In assay [2] (20 mg/kg/day), the “inhibition, CALU-6” value is listed as 41%.
Take `COC(=O)c1ccc(NCc2cc(O)ccc2O)cc1` [Compound 24, N-(2,5-dihydroxylbenzyl)-4-methoxycarbonylaniline]: in assay [1], half-maximal inhibition (IC50) was put at 28.9 µM.
In assay [1], `N#CC(C(=O)Nc1cccc(C(F)(F)F)c1)C(=S)Nc1ccccc1Cl` (stereo not drawn) [Compound 25, N-(2-chlorophenyl)-2-cyano-2-(N-3-trifluorophenylamino-carbonyl)-thioacetamide] showed an IC50 of 8.5 µM.
With `N#CCS(=O)(=O)/C(C#N)=C/c1cc(O)c(O)c(Br)c1` [Compound 26, (E)-2-cyanomethylsufonyl-3-(3-bromo-4,5-dihydroxyphenyl)acrylonitrile], the IC50 in assay [1] was 11 µM.
The compound `CC1c2nc3ccccc3c(=O)n2C(c2ccc(O)cc2)N1Cc1ccccc1` (stereo not drawn) [Compound 27] registered an IC50 in assay [1] of 3.4 µM.
In turn, `Cc1cc2ncc(Nc3cccc(Cl)c3)nc2cc1C` [Compound 28, 2-(3-chlorophenylamino)-6,7-dimethylquinoxaline] came in with a 50% inhibitory concentration (IC50) in assay [1] of 16 µM.

These data come from patent US5763441A, “Compounds for the treatment of disorders related to vasculogenesis and/or angiogenesis” (Sugen, Inc., priority 1995, dated 1998).
